Key:
Test in all cases: HPAEC-PAD of hydrolysis products
Format in all cases: biochemical
AGY82530 = target: T1, AGY82530 (Carnobacterium inhibens, UniProt A0ABR7TC15); settings: […] M6, […] phosphate pH […] C; overnight incubation
T1 construct: gene GLO26_06385; predicted GH113 catalytic domain; no signal peptide predicted; N-terminal His6 tag (pHTP1), E. coli BL21(DE3); codon-optimised synthetic gene
T1 sequence (A0ABR7TC15 1-309): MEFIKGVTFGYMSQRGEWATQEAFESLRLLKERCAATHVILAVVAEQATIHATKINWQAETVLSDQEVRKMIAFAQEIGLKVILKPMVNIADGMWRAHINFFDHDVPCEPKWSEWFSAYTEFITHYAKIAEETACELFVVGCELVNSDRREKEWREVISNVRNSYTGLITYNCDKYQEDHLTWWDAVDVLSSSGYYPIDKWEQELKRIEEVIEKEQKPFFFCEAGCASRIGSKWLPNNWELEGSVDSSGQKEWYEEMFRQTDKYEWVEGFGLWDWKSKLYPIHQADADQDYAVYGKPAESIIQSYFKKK

AIQ46016 = target: T2, AIQ46016 (Paenibacillus sp. FSL R7-0273, UniProt A0A089KA84); settings: […] M6, […] phosphate pH […] C; overnight incubation
T2 construct: gene R70723_09070; predicted GH113 catalytic domain; no signal peptide predicted; N-terminal His6 tag (pHTP1), E. coli BL21(DE3); codon-optimised synthetic gene
T2 sequence (A0A089KA84 1-318): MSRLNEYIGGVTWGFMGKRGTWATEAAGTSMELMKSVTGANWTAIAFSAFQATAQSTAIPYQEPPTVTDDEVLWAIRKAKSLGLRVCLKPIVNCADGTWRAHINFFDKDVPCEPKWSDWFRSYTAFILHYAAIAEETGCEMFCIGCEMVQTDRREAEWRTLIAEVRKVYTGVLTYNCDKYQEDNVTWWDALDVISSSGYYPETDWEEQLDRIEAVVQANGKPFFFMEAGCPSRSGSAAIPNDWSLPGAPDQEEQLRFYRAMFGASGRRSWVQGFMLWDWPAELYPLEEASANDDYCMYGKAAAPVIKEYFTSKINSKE

EDP22100 = target: T3, EDP22100 (Faecalibacterium prausnitzii, UniProt A8S9T0); settings: 100 uM M6, 10 mM phosphate pH 7.5, 25 C; reaction time course
T3 construct: gene FAEPRAM212_01134; predicted GH113 catalytic domain; no signal peptide predicted; N-terminal His6 tag (pHTP1), E. coli BL21(DE3); codon-optimised synthetic gene
T3 sequence (A8S9T0 1-309): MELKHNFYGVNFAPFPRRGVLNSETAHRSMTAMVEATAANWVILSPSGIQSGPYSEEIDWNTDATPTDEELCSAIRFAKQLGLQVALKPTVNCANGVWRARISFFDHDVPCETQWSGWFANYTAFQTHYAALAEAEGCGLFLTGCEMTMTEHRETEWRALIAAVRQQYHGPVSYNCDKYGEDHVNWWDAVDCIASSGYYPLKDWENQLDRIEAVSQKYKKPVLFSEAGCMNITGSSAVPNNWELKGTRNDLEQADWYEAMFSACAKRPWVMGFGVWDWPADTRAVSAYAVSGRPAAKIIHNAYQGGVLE

OC[C@H]1O[C@@H](O[C@H]2[C@H](O)[C@H](O)[C@H](O[C@H]3[C@H](O)[C@H](O)[C@H](O[C@H]4[C@H](O)[C@H](O)[C@H](O[C@H]5[C@H](O)[C@H](O)[C@H](O[C@H]6[C@H](O)[C@H](O)C(O)O[C@@H]6CO)O[C@@H]5CO)O[C@@H]4CO)O[C@@H]3CO)O[C@@H]2CO)[C@@H](O)[C@@H](O)[C@@H]1O (stereo partly drawn) [M6, mannohexaose]
HPAEC-PAD of hydrolysis products (AGY82530): end-products released by AGY82530, AGF59019, AIQ46016 and AIQ63165 after overnight incubation with M6
HPAEC-PAD of hydrolysis products (AIQ46016): end-products released by AGY82530, AGF59019, AIQ46016 and AIQ63165 after overnight incubation with M6
HPAEC-PAD of hydrolysis products (EDP22100): confirming the release of mannose from mannohexaose (M6)

— PMC9032380, “Functional exploration of the glycoside hydrolase family GH113” (PLoS ONE, 2022)
